The values that follow come from patent publication US20180147175A1, “COMPOSITIONS AND METHODS FOR TREATMENT OF MOVEMENT DISORDERS” (ULTRAGENYX PHARMACEUTICAL INC., priority 2015, published 2018).

Data set [1] concerns GLUT1-DS patients with non-epileptic paroxysmal manifestations. As to the kind of experiment: Open-label pilot study in GLUT1-DS patients: paroxysmal events diary and clinical scales. Format: in vivo, human. An excerpt: This example describes an open-label pilot study with four phases of 2 months each (baseline, treatment […], and resumption of treatment) in eight GLUT1-DS patients (7-47 years old) with non-epileptic paroxysmal manifestations.
Participants were enrolled in an interventional clinical protocol. Four children and four adults with GLUT1-DS were enrolled. […] All patients were on a normal diet prior to their enrollment. As noted above, the study was divided into four phases of 2 months each (baseline, treatment, withdrawal, and resumption of treatment). A trained dietitian determined patients' caloric intake and adapted the daily menus so the diets remained isocaloric when triheptanoin was introduced.
A comprehensive diary was kept for each patient to record all motor and non-motor paroxysmal events—including dystonia, tremor, speech disorder, stiffness, paresis, headaches, confusion, and lethargy. At each visit, patients were evaluated with a six minute walk test (6MWT), a nine-hole pegboard test (NHPT), the clinical global impression-improvement scale (CGI-I) and a fatigue severity scale (KFFS or visual analogue scale for patients <15 years old). Blood samples were collected after an overnight fast for standard analyses, and the measurement of plasma C3-carnitine and C5-ketone bodies (Mochel et al., 2005, Molecular Genetics and Metabolism 84: 305-312).
(§1) Paired t-tests were used for plasma analyses before and after treatment. For clinical parameters, Friedman tests were used to test the global hypothesis that all study phases were equal. If significant, Wilcoxon signed-rank tests were applied for pair-wise phase comparisons with an alpha of 0.05. For the Pi/PCr ratio, repeated measures ANOVA were used to test the global hypothesis that all time points—rest, activation and recovery—were equal. If significant, paired t-tests were applied for pair-wise time comparisons with an alpha of 0.05.

Data set [2] relates to brain response to cortical activation. As to the kind of experiment: Functional 31P-NMR spectroscopy (f-MRS) of brain, Pi/PCr ratio during visual activation. In kind it is in vivo, human. The procedure:
Functional ^31P-NMR spectroscopy (f-MRS) was performed at 3 T at the end of each study phase in patients >15 years old (n=5). Data were collected for 4 minutes at rest, 8 minutes during visual activation, 8 minutes after stimulation, and analyzed as described (Adanyeguh et al., 2015, Neurology 84: 490-495 and Mochel et al., 2012, Mov Disord. 27: 907-910). The ratio of Pi/PCr was calculated to determine the brain response to cortical activation.
as §1

“Also recorded” adds a separate entry of the source.

`CCCCCCC(=O)OCC(COC(=O)CCCCCC)OC(=O)CCCCCC` [triheptanoin]: the tolerability result in data set [1] (1 g/kg/day oral, all patients) was “well tolerated”. In addition, the paroxysmal manifestations result in data set [1] (after treatment was resumed) is listed as “dropped significantly”. Moreover, the “non-epileptic paroxysmal manifestations (FIG. 1)” value in data set [1] (treated 2 months and on resumption, p<0.05) was “significant reduction”. For the same compound, the “average number of dystonic events” value in data set [1] (treated 2 months, 1 g/kg/day oral, n=6, baseline 16 (±19, 1-54)) worked out at 2; in data set [1] (withdrawal phase, 2 months), 13. Moreover, the “average number of paroxysmal manifestations” value in data set [1] (treated 2 months, 1 g/kg/day oral, n=6, baseline average 31 (±28, 10-85), p=0.028) is 3 (±3, 0-7); in data set [1] (withdrawal phase, 2 months, p=0.043), 24. The “performance during the 6MWT and NHPT” value in data set [1] (treatment phase) is listed as “unchanged”. The CGI-I scale entry in data set [1] (treatment phase, all patients) is “much improved”; in data set [1] (withdrawal phase, five out of six patients), “much worse”. Also, the fatigue score entry in data set [1] (treatment phase, did not reach significance) is “tended to improve”; in data set [1] (withdrawal phase) it was “worsened”. Also, in data set [2] (after 2 months on triheptanoin, ANOVA p=0.014, patients >15 years, n=5), the f-MRS bioenergetics profile entry is “corrected; also recorded: normalized”. Also, in data set [2] (after treatment withdrawal), the f-MRS profile entry is “came back abnormal”.
